Laboratory results from ChEMBL document CHEMBL1201862, “PubChem BioAssay data set” (2004).
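Following 48 hours of exposure in 96-well plates, responses at five concentrations were used to interpolate endpoints linearly. Abbreviation: GI50, concentration required for 50% inhibition of growth.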 Active and inactive are the calls of the source. Cut-off read from the data, not from the text of the source: active = GI50 up to about 1.1 µM and inactive = higher.

Tests used:
Assay in all cases: NCI anticancer screen, dose series, 48 h
[1] = test system: A498
[2] = test system: A549
[3] = test system: BT-549
[4] = test system: EKVX
[5] = test system: HOP-92
[6] = test system: K562
[7] = test system: LOX IMVI
[8] = test system: M14
[9] = test system: Malme-3M
[10] = test system: NCI-H460
[11] = test system: OVCAR-4
[12] = test system: OVCAR-8
[13] = test system: RPMI-8226
[14] = test system: SF-295
[15] = test system: SNB-75
[16] = test system: TK-10
[17] = test system: UACC-257
[18] = test system: UACC-62
[19] = test system: UO-31

**Q.** `Cc1nc2c(=O)n(-c3ccccc3)c3ccccc3c2o1` was tested. Which GI50 [1] did it give?
**A.** > 100 µM (inactive)

**Q.** And the GI50 [2]?
**A.** > 100 µM (inactive)

**Q.** And the GI50 [3]?
**A.** > 100 µM (inactive)

**Q.** What about the GI50 [4] of the same compound?
**A.** > 100 µM (inactive)

**Q.** And the GI50 [5]?
**A.** > 100 µM (inactive)

**Q.** What about the GI50 [6] of the same compound?
**A.** > 100 µM (inactive)

**Q.** What about the GI50 [7] of the same compound?
**A.** > 100 µM (inactive)

**Q.** And the GI50 [8]?
**A.** > 100 µM (inactive)

**Q.** And the GI50 [9]?
**A.** > 100 µM (inactive)

**Q.** What about the GI50 [10] of the same compound?
**A.** > 100 µM (inactive)

**Q.** And the GI50 [11]?
**A.** > 100 µM (inactive)

**Q.** What about the GI50 [12] of the same compound?
**A.** > 100 µM (inactive)

**Q.** What about the GI50 [13] of the same compound?
**A.** > 100 µM (inactive)

**Q.** And the GI50 [14]?
**A.** > 100 µM (inactive)

**Q.** And the GI50 [15]?
**A.** > 100 µM (inactive)

**Q.** And the GI50 [16]?
**A.** > 100 µM (inactive)

**Q.** And the GI50 [17]?
**A.** > 100 µM (inactive)

**Q.** What about the GI50 [18] of the same compound?
**A.** > 100 µM (inactive)

**Q.** What about the GI50 [19] of the same compound?
**A.** > 100 µM (inactive)

**Q.** `CC(=N/NC(=S)N(C)C)/C(=N\NC(=S)N(C)C)c1ccccc1` was tested. Which GI50 [1] did it give?
**A.** 1.59 µM (inactive)

**Q.** What about the GI50 [2] of the same compound?
**A.** 2.76 µM (inactive)

**Q.** And the GI50 [3]?
**A.** 2.17 µM (inactive)

**Q.** And the GI50 [4]?
**A.** 1.85 µM (inactive)

**Q.** What about the GI50 [5] of the same compound?
**A.** 1.95 µM (inactive)

**Q.** What about the GI50 [6] of the same compound?
**A.** 5.15 µM (inactive)

**Q.** What about the GI50 [7] of the same compound?
**A.** 3.08 µM (inactive)

**Q.** What about the GI50 [8] of the same compound?
**A.** 1.97 µM (inactive)

**Q.** What about the GI50 [9] of the same compound?
**A.** 1.75 µM (inactive)

**Q.** And the GI50 [10]?
**A.** 1 µM (active)

**Q.** And the GI50 [11]?
**A.** 2.02 µM (inactive)

**Q.** What about the GI50 [12] of the same compound?
**A.** 2.02 µM (inactive)

**Q.** And the GI50 [13]?
**A.** 2.74 µM (inactive)

**Q.** What about the GI50 [14] of the same compound?
**A.** 2.08 µM (inactive)

**Q.** What about the GI50 [15] of the same compound?
**A.** 2.12 µM (inactive)

**Q.** And the GI50 [16]?
**A.** 1.59 µM (inactive)

**Q.** And the GI50 [17]?
**A.** 1.98 µM (inactive)

**Q.** And the GI50 [18]?
**A.** 1.94 µM (inactive)

**Q.** And the GI50 [19]?
**A.** 2.11 µM (inactive)

**Q.** With `O=C(/C=C1\N=C(c2ccccc2)N(c2nc3ccc(Sc4ccccc4)cc3[nH]2)C1=O)/C=C/c1ccccc1` as the compound, how does the GI50 [1] read?
**A.** 27.9 µM (inactive)

**Q.** What about the GI50 [2] of the same compound?
**A.** 41.1 µM (inactive)

**Q.** What about the GI50 [3] of the same compound?
**A.** 31.1 µM (inactive)

**Q.** And the GI50 [4]?
**A.** 43.4 µM (inactive)

**Q.** What about the GI50 [5] of the same compound?
**A.** 37.8 µM (inactive)

**Q.** And the GI50 [6]?
**A.** 26.2 µM (inactive)

**Q.** What about the GI50 [7] of the same compound?
**A.** 17.4 µM (inactive)

**Q.** What about the GI50 [8] of the same compound?
**A.** 33.3 µM (inactive)

**Q.** And the GI50 [9]?
**A.** 34.7 µM (inactive)

**Q.** What about the GI50 [10] of the same compound?
**A.** 30.2 µM (inactive)

**Q.** What about the GI50 [11] of the same compound?
**A.** 39.8 µM (inactive)

**Q.** What about the GI50 [12] of the same compound?
**A.** 24.5 µM (inactive)

**Q.** And the GI50 [13]?
**A.** 22.6 µM (inactive)

**Q.** And the GI50 [14]?
**A.** 28.2 µM (inactive)

**Q.** And the GI50 [15]?
**A.** 16.7 µM (inactive)

**Q.** What about the GI50 [16] of the same compound?
**A.** 29.2 µM (inactive)

**Q.** What about the GI50 [17] of the same compound?
**A.** 30.8 µM (inactive)

**Q.** And the GI50 [18]?
**A.** 22.9 µM (inactive)

**Q.** What about the GI50 [19] of the same compound?
**A.** 53.3 µM (inactive)

**Q.** Which results are given for `CNC(=S)N/N=C(\C(=N/NC(=S)NC)c1ccccn1)c1ccccn1`?
**A.** GI50 [1]: 4.58 µM (inactive); GI50 [2]: 5.74 µM (inactive); GI50 [3]: 14.4 µM (inactive); GI50 [4]: 1.63 µM (inactive); GI50 [5]: 15.2 µM (inactive); GI50 [6]: 4.55 µM (inactive); GI50 [7]: 4.82 µM (inactive); GI50 [8]: 2.14 µM (inactive); GI50 [9]: 4.73 µM (inactive); GI50 [10]: 0.348 µM (active); GI50 [11]: 10.9 µM (inactive); GI50 [12]: 0.687 µM (active); GI50 [13]: 32.8 µM (inactive); GI50 [14]: 3.15 µM (inactive); GI50 [15]: 20.8 µM (inactive); GI50 [16]: 4.04 µM (inactive); GI50 [17]: 1.82 µM (inactive); GI50 [18]: 4.59 µM (inactive); GI50 [19]: 2.48 µM (inactive)

**Q.** For `CC(C)(C)OC(=O)C(C#N)C(=O)c1ccc(C(=O)O)[nH]1` (stereo not drawn), which GI50 [1] is on record?
**A.** 20.5 µM (inactive)

**Q.** And the GI50 [2]?
**A.** 35.9 µM (inactive)

**Q.** What about the GI50 [3] of the same compound?
**A.** 48.5 µM (inactive)

**Q.** What about the GI50 [4] of the same compound?
**A.** 29.2 µM (inactive)

**Q.** And the GI50 [5]?
**A.** 12 µM (inactive)

**Q.** And the GI50 [6]?
**A.** 22.6 µM (inactive)

**Q.** And the GI50 [7]?
**A.** 27.7 µM (inactive)

**Q.** What about the GI50 [8] of the same compound?
**A.** 44.2 µM (inactive)

**Q.** What about the GI50 [9] of the same compound?
**A.** 35.2 µM (inactive)

**Q.** And the GI50 [10]?
**A.** 29.7 µM (inactive)

**Q.** What about the GI50 [11] of the same compound?
**A.** 19.5 µM (inactive)

**Q.** And the GI50 [12]?
**A.** 30.1 µM (inactive)

**Q.** And the GI50 [13]?
**A.** 22.8 µM (inactive)

**Q.** And the GI50 [14]?
**A.** 33.5 µM (inactive)

**Q.** And the GI50 [15]?
**A.** 50.5 µM (inactive)

**Q.** And the GI50 [16]?
**A.** 29.7 µM (inactive)

**Q.** And the GI50 [17]?
**A.** 30.2 µM (inactive)

**Q.** And the GI50 [18]?
**A.** 18.3 µM (inactive)

**Q.** And the GI50 [19]?
**A.** 30.8 µM (inactive)

**Q.** Which results are given for `N#CC(c1cc(Cl)ncn1)c1nc2ccccc2s1` (stereo not drawn)?
**A.** GI50 [1]: 21.8 µM (inactive); GI50 [2]: 27.8 µM (inactive); GI50 [3]: 5 µM (inactive); GI50 [4]: 20.9 µM (inactive); GI50 [5]: 3.57 µM (inactive); GI50 [6]: 4.93 µM (inactive); GI50 [7]: 4.72 µM (inactive); GI50 [8]: 17.1 µM (inactive); GI50 [9]: 10.8 µM (inactive); GI50 [10]: 4.27 µM (inactive); GI50 [11]: 6.46 µM (inactive); GI50 [12]: 3.85 µM (inactive); GI50 [13]: 2.49 µM (inactive); GI50 [14]: 15.6 µM (inactive); GI50 [15]: 13.6 µM (inactive); GI50 [16]: 4.81 µM (inactive); GI50 [17]: 10.5 µM (inactive); GI50 [19]: 16.6 µM (inactive)
